Assay results taken from patent publication US9296719B2, “Compositions and methods for the treatment of norovirus infection” (Indiana University Research and Technology Corporation, priority 2011, dated 2016).
“Also recorded” adds a separate entry of the source. Like-named read-outs stand apart in the source and are kept apart here.

What was measured:
GII.4 NV polymerase = test: 5BR reporter assay, GII.4 polymerase; assay type: cell-based, Human Norovirus; conditions: for effect on GII.4 polymerase 5BR assay readout (screen): re-screened at 10 and 20 μM final concentrations, FIG. 6A
Procedure: (§1) The 5BR reporter assay to measure the activity of the Norovirus polymerase and other viral polymerases was performed as per Ranjith-Kumar et al. (32). The assay could also be performed with other viral proteins, such as VPg or VP1. Briefly, plasmids expressing RdRp and VPg were co-transfected along with plasmids to express RIG-I or MDA5, as well as the firefly and Renilla luciferase reporters. HEK293T or Huh 7 cells were transfected using Lipofectamine 2000 (Invitrogen, Carlsbad, Calif.) according to the manufacturer's instructions. 24 h prior to transfection, 0.75×10^5 cells were seeded into each well of Costar 96-well plates in DMEM containing 10% FBS. Cells were then typically transfected at 75% confluency with plasmid amounts detailed in the figure legends and complexed with Lipofectamine 2000 as per the manufacturer's instructions (Invitrogen, USA). Vector plasmid (pUNO-MCS) was used to maintain a constant total plasmid DNA per well. To examine the VPg effect on NV RdRp-RIG-I signaling, 293T cells were co-transfected with plasmids expressing RdRp and VPg. At 36 h after transfection, luciferase activity was measured using Dual-Glo Luciferase Assay System (Promega, Madison, Wis.) in Synergy 2 microplate reader (BioTek, Winooski, Vt.).
Where inhibitors were added to the cells for the 5BR assay, they were added 2 h after transfection of the plasmids.
We have previously developed an easily manipulative, cell-based assay to assess RNA synthesis by viral polymerases. The 5BR assay was validated for the 1b HCV polymerase (NS5B) and has since been established for several other viruses that cannot infect cultured human cells (32 and data not shown). The assay works by having the viral polymerase synthesize RNAs, which then act as agonists to activate RIG-I and/or MDA5. Receptor activation induces Firefly luciferase reporter expression which is driven by the interferon beta promoter (FIG. 2A). A Renilla luciferase is expressed in the same cells to report on the transfection efficiency and possible cytopathic effects. The polymerase from the GII.4 strain of Norwalk virus is the prototype in our assay.
The 5BR assay format has been validated for studies of nonnucleoside and nucleoside inhibitors (NNI, NI, respectively) of the 1b and 2a HCV polymerase and how resistant mutations can prevent inhibition (32). Using this format, we performed a proof-of-concept screen for inhibitor of the GII.4 polymerase. […] The hits were re-screened at 10 and 20 μM final concentrations (FIG. 6A). […] This is consistent with the results of Chang et al., (18) although Ribavirin is known to have pleiotropic effects on cellular as well as viral processes (66).

[1] = tested on: recombinant GII.4 polymerase (NV RdRp); test: Differential scanning fluorimetry (DSF) binding to recombinant NV polymerase; parameters: species or system Human Norovirus
Description: Differential Scanning Fluorimetry (DSF)
This method is used to examine the binding of proteins to drugs (31). The principle for the assay is that the thermal denaturation profile of the protein could be changed when it is complexed to the drug. To perform the assay, thermal melting curves of NV RdRp in the presence of inhibitors were obtained in 96-well plates using Stratagene Mx3005P Q-PCR system (Agilent Tachnologies, USA) and the fluorescent dye SYPRO Orange (Invitrogen, Carlsbad, Calif.). To evaluate the binding affinities of inhibitors, different concentrations of various drugs like VX-222, Filibuvir and Ribavirin were mixed with 20 μM purified NV RdRp and 5× concentration of SYPRO Orange. A heating rate of 1.0° C. per min was used from 25 to 90° C., and fluorescence intensity was read at excitation and emission wavelengths of 470 and 550 nm, respectively. Each sample was tested in triplicate, and the results were duplicated in at least two independent assays.

RIG-I signaling = RIG-I signaling in the absence of the NV polymerase; assay type: cell-based, human; conditions: absence of the NV polymerase (data not shown)
Procedure: as §1, with “Vt.). […]” for “Vt.).”

[2] = biological target: GII.4 polymerase-VPg complex; test: 5BR reporter assay, GII.4 polymerase-VPg complex; assay type: cell-based, Human Norovirus
Procedure: as §1
(§2) Where inhibitors were added to the cells for the 5BR assay, they were added 2 h after transfection of the plasmids. […]

MNV polymerase = biological target: T1, MNV polymerase (Norovirus, UniProt Q80J95); test: 5BR reporter assay, MNV polymerase; assay type: cell-based, Mouse norovirus; conditions: 5BR assay; read-out: EC50, inhibition of MNV polymerase
T1 construct: NS7, the RNA-dependent RNA polymerase (RdRp), and NS5 (VPg), the protein primer; expressed in transfected cells; host or cells: HEK293T or Huh 7
Procedure: as §1, §2

Molecule | effect on GII.4 polymerase 5BR assay readout (screen) (GII.4 NV polymerase) | effect in the DSF assay ([1]; recombinant GII.4 polymerase) | concentration at which the thermal denaturation profile starts to shift ([1]; nucleoside form) [µM] | effect on RIG-I signaling (RIG-I signaling) | EC50 (GII.4 NV polymerase; 5BR assay, polymerase alone (no VPg), read-out: EC50, inhibition of GII4 polymerase) [µM] | EC50 (GII.4 NV polymerase; HEK293T cells, 5BR assay, read-out: effective concentration for inhibition) [µM] | inhibition of GII.4 NV polymerase activity in Huh7 cells (GII.4 NV polymerase; Huh7 cells, 5BR assay, GII.4 VP1 co-expressed, FIG. 6C) | EC50 ([2]; 5BR assay, VPg co-expressed, read-out: EC50 with GII.4 polymerase-VPg complex) [µM] | EC50 ([2]; library screen, read-out: EC50, inhibitor of human norovirus polymerase-VPg complex) [µM] | EC50 (MNV polymerase) [µM] | shift of thermal denaturation profile (apparent Tm) of GII.4 polymerase ([1]; absence of VPg, apparent Tm of polymerase alone ~43.5° C.)
CCc1cc(CC[C@]2(C3CCCC3)CC(O)=C(Cc3nc4nc(C)cc(C)n4n3)C(=O)O2)cc(CC)n1 [Filibuvir] | no effect; also recorded: did not affect | no effect |  |  |  |  |  |  |  |  | 
NC(=O)c1ncn([C@@H]2O[C@H](CO)[C@@H](O)[C@H]2O)n1 [Ribavirin] | modest inhibitory effect |  | 1 |  |  |  |  |  |  |  | 
VX-222 |  |  |  | did not affect | ~15 | ~0.1 | concentration-dependent inhibition | 0.9 | < 1 | ~15 | more than 4.5 °C
